The numbers were not newly measured in patent US8940742B2, “Heterocyclic compounds and uses thereof” (Infinity Pharmaceuticals, Inc., priority 2012, dated 2015), which cites them from elsewhere.

SMILES strings stand for the structures.

Data set [1] concerns NZB/W F1 mice. The conditions noted are these: NZB/W model, profilactic and therapeutic; cited from earlier work.
Data set [2] concerns lupus symptoms. Particulars: B6.Sle1z.Sle3z model; cited from earlier work.
The conditions of data set [3]: PBS pH 7.4, 37° C., 24 hours, 5 μM; cited from earlier work.
For data set [4], the system named is p190 transduced leukemic cells. The conditions noted are these: about 70 mg/kg twice daily; cited from earlier work.

As to `CC(C)C[C@H](NC(=O)[C@H](Cc1ccccc1)NC(=O)c1cnccn1)B(O)O` [Bortezimib], in data set [1], the blocking disease result is “effective at blocking disease”.
Consider `CO[C@H]1C[C@@H]2CC[C@@H](C)[C@@](O)(O2)C(=O)C(=O)N2CCCC[C@H]2C(=O)O[C@H]([C@H](C)C[C@@H]2CC[C@@H](OCCO)[C@H](OC)C2)CC(=O)[C@H](C)/C=C(\C)[C@@H](O)[C@@H](OC)C(=O)[C@H](C)C[C@H](C)/C=C/C=C/C=C/1C` [RAD001, everolimus], for which, in data set [2], the lupus symptoms result is given as “ameliorate lupus symptoms”.
For the molecule `O=C(O)CCCc1ccc(N(CCCl)CCCl)cc1` [chlorambucil], the chemical stability result in data set [3] was “largely hydrolyzed over the course of 24 hours”.
As for `Cc1ccc(NC(=O)c2ccc(CN3CCN(C)CC3)cc2)cc1Nc1nccc(-c2cccnc2)n1` [imatinib], the leukemogenesis result in data set [4] is on record as “delay but not cure leukemogenesis”.
